Results: ChEMBL document CHEMBL1122421 (J Med Chem, 1983)

Target: Opioid receptor (Rattus norvegicus, UniProt P33533+P34975+P33535)
Assay: Binding affinity against opiate receptor from rat neural membranes, using [3H]dihydromorphine as radioligand

Row | Structure (SMILES) | IC50 [nM]
1 | CN1CCC23c4c5ccc(O)c4O[C@H]2C(O)C=C[C@@]3(NC(=O)CBr)C1C5 (some centres not stated) | 15
2 | CN1CCC23c4c5ccc(O)c4O[C@H]2C(=O)C=C[C@@]3(NC(=O)CBr)C1C5 (some centres not stated) | 10
